Experimental data taken from patent publication US20210108191A1, “Methods of Production of Biologically Active Lasso Peptides” (The Board of Trustees of the University of Illinois, priority 2017, published 2021).
Bridges are numbered along the chain shown (N, C = ends). Where no end group is shown, it is not given here.

Tested on: several pathogenic bacteria
Test: activity against pathogenic bacteria
Assay type: cell-based
From the text: RODEO can be used to assist in identifying lasso peptide gene clusters (FIG. 2). […] Several new lasso peptides have been characterized. (FIG. 3B-C). […] RODEO provides a roadmap for the discovery of new RiPPs and lasso peptide biosynthetic enzymology.

LP2006: rare disulfide-containing, class IV lasso peptide (SEQ ID NO:6) from Nocardiopsis alba (GRPNWGFENDWSCVRVC; disulfide 13-17 (inferred); also: lasso topology, ring places not given here)
activity against pathogenic bacteria: active against several pathogenic bacteria
